Activity calls are given as the source filed them.
Experiments:
[1] = molecular target: CAAX prenyl protease 1 (Saccharomyces cerevisiae S288c, UniProt P47154); assay: yeast CAAX protease Ste24 inhibition – biochemical, S. cerevisiae, plate reader, cherry-pick, dose response (AID 488815)
[2] = molecular target: Tyrosine-protein phosphatase non-receptor type 7 (Homo sapiens, UniProt P35236); format: functional
[3] = molecular target: Glyceraldehyde-3-phosphate dehydrogenase (Homo sapiens, UniProt P04406)
[4] = molecular target: T1, Dual specificity protein phosphatase 6 (Rattus norvegicus, UniProt Q64346)
[5] = molecular target: T1, Dual specificity protein phosphatase 6; format: functional
[6] = Luminescence Cell-Based Dose Retest to Confirm Inhibitors of Cancer Stem Cells. [Related pubchem assays (depositor defined):AID2717, AID2721]; format: functional; settings: Homo sapiens
[7] = viability loss of HMLE_sh_eGFP cells – cell-based, luminescence, counter-screen for HMLE_sh_ECad selective toxicity project, dose response (AID 463074); format: functional, Homo sapiens;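 further: HMLE human mammary epithelial cells expressing control shRNA against eGFP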
[8] = NIH-3T3 fibroblast cytotoxicity, dose response, cytotoxicity control, cell-based, fluorescence, Alamar Blue, secondary assay (AID 2327); format: functional;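 further: NIH-3T3 mouse fibroblasts cultured with fluconazole at 8 µg/mL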
[9] = molecular target: T2, Delta-type opioid receptor (Homo sapiens, UniProt P41143); assay: HTS Image-Based Screen for Antagonists of the DOR Receptor. [Related pubchem assays (depositor defined):AID1777, AID1785, AID1786, AID2133]; format: functional
[10] = molecular target: Mu-type opioid receptor (Homo sapiens, UniProt P35372); assay: HTS Image-Based Screen for Agonists of the MOR Receptor. [Related pubchem assays (depositor defined):AID1777, AID1785, AID1786, AID2133]; format: functional;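 further: imaging of beta-arrestin GFP recruitment into spots after receptor activation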
[11] = tested on: Streptococcus sp. 'group A'; assay: Streptococcus pyogenes SK(-)GAS viability under kanamycin – luminescence, BacTiterGlo, confirmation, counter-screen for streptokinase expression inhibitor project, dose response (AID 1900); format: functional, organism-based
[12] = molecular target: T2, Delta-type opioid receptor; assay: HTS Image-Based Screen for Agonists of the DOR Receptor. [Related pubchem assays (depositor defined):AID1777, AID1786, AID2133]; format: functional
[13] = molecular target: T3, Beta-galactosidase (Escherichia coli, UniProt Q8VNN2); assay: PubChem AID 485352; format: functional
[14] = fluconazole-exposed Candida albicans growth modulators – fluorescence, retest, confirmation (AID 2467); format: functional, cell-based
[15] = molecular target: T4, Type-1 angiotensin II receptor (Homo sapiens, UniProt P30556); assay: antagonism of angiotensin II type 1 receptor – cell-based, uHTS hits, selectivity assay for APJ receptor antagonist project, dose response (AID 463214); format: functional;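 further: antagonist potency against angiotensin II stimulated AT1 response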
T4 sequence (P30556 whole entry): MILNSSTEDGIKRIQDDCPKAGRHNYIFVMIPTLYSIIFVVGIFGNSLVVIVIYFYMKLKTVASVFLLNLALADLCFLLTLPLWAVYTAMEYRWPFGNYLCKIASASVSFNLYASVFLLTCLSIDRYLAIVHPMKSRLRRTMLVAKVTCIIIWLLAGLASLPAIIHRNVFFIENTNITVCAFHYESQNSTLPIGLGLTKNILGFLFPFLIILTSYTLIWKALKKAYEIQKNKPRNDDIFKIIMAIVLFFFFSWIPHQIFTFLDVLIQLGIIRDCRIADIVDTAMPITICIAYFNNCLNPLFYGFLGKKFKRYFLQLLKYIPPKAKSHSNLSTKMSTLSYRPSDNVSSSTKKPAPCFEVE

[16] = molecular target: T5, Serine/threonine-protein phosphatase (Candida dubliniensis (strain CD36 / CBS 7987 / NCPF 3949 / NRRLY-17841) (Yeast), UniProt B9W6M3); assay: blockers of CaCl2-induced CDRE-lacZ signaling – S. cerevisiae, luminescence, secondary, dose response (AID 2388); format: functional, cell-based;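 further: yeast reporter cells carrying a calcineurin-responsive lacZ construct stimulated with calcium chloride; luminescent beta-galactosidase reporter signal in whole cells rather than isolated phosphatase activity; potency for inhibition where a drop in reporter signal means calcineurin blockade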
T5 sequence (B9W6M3 whole entry): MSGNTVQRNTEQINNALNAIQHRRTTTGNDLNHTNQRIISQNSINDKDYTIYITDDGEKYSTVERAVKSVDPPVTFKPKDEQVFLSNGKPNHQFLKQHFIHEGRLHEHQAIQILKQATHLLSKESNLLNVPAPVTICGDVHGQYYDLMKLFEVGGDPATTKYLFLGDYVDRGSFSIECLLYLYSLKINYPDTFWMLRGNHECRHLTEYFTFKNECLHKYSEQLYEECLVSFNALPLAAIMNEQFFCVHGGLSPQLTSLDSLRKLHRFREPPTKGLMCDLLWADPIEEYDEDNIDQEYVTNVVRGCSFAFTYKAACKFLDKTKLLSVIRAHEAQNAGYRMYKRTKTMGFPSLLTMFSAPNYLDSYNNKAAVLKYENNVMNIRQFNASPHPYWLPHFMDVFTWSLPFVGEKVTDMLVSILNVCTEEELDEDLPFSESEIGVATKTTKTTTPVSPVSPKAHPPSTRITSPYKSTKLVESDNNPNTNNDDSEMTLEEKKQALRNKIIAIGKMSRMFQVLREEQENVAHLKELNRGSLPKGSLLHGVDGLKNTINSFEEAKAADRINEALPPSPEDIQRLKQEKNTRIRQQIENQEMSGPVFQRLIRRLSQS

[17] = molecular target: T6, Kappa-type opioid receptor (Homo sapiens, UniProt P41145); format: functional
[18] = molecular target: T3, Beta-galactosidase; format: functional
[19] = molecular target: T6, Kappa-type opioid receptor; format: functional; remark: listed apart in the source
[20] = tested on: Streptococcus; assay: GAS UMAA2166 growth inhibition – luminescence, BacTiterGlo, counter-screen for streptokinase expression inhibitor project, dose response (AID 1915); format: functional, organism-based;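 further: potency for reduction of bacterial viability or growth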
[21] = molecular target: T7, Bcl-2-related protein A1 (Mus musculus, UniProt Q07440); format: functional;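 further: confirmatory dose–response counterscreen on Bfl-1, used to check hits from a UBC13 polyubiquitin inhibitor campaign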
T7 sequence (Q07440 whole entry): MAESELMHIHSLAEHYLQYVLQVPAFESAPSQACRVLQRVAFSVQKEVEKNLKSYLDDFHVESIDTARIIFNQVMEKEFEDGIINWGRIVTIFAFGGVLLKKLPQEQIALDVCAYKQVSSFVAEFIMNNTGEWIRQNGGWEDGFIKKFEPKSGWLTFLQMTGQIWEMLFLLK

[22] = molecular target: T8, Ubiquitin-conjugating enzyme E2 N (Homo sapiens, UniProt P61088); format: functional
T8 sequence (P61088 whole entry): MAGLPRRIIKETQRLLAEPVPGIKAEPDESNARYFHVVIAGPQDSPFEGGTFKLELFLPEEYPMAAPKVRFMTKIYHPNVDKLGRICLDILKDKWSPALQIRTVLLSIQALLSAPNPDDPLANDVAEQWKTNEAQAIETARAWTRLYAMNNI

[23] = molecular target: T8, Ubiquitin-conjugating enzyme E2 N; format: functional; remark: listed apart in the source
[24] = molecular target: Cytochrome P450 2C19 (Homo sapiens, UniProt P33261); assay: Cytochrome panel assay with activity outcomes. Panel member name: p450-cyp2c19 Compounds with AC50 equal or less than 10 uM are considered active; format: functional; settings: read-out: AC50
[25] = tested on: Vero; assay: cells; format: functional, cell-based; settings: Chlorocebus sabaeus
[26] = tested on: Vero; assay: cells; format: functional; settings: Chlorocebus sabaeus
[27] = molecular target: ATP-dependent molecular chaperone HSP82 (Candida albicans (strain WO-1) (Yeast), UniProt C4YTQ8); assay: steroid-induced GRE reporter decrease in yeast – S. cerevisiae, luminescence, Hsp90 inhibitor project, dose response (AID 2400); format: functional, cell-based;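 further: beta-galactosidase luminescence from glucocorticoid response element reporter as proxy for Hsp90 function; inhibitor potency where signal loss means Hsp90 inhibition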
[28] = reduction of Shn3 3'UTR-driven luciferase in osteoblasts – cell-based, Clone20 osteoblasts, firefly luciferase, cherry-picked, dose response (AID 624132); format: functional;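 further: firefly luciferase luminescence from reporter carrying the Shn3 3'UTR in osteoblasts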
[29] = loss of viability in HepG2 cells – cell-based, CellTiter-Glo, cherry-picked, cytotoxicity control for Shn3 inhibitor project, dose response (AID 624134); format: functional
[30] = non-specific 3'UTR reporter inhibition in Clone20-Shn3RL – cell-based, Renilla luciferase, cherry-picked, counter-screen for Shn3 inhibitor project, dose response (AID 624133); format: functional

T2 sequence (P41143 whole entry): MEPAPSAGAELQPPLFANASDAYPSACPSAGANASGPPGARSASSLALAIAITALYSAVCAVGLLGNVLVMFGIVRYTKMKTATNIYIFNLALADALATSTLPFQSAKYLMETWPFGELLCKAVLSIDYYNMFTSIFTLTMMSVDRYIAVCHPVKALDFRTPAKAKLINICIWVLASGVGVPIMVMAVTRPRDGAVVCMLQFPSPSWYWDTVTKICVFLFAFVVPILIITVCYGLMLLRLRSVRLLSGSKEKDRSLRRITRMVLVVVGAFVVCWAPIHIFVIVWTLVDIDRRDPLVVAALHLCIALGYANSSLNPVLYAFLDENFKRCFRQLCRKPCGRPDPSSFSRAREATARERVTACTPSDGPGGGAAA
T6 sequence (P41145 whole entry): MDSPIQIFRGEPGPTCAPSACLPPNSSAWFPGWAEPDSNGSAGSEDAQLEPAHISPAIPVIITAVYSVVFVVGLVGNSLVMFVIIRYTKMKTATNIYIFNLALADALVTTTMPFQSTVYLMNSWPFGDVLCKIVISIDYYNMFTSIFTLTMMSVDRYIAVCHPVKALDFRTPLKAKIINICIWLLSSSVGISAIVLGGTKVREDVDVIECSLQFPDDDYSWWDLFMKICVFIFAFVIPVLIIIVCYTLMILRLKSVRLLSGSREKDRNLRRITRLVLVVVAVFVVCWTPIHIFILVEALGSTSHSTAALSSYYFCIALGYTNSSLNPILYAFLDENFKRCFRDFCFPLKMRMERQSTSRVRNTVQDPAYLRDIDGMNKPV
T3 sequence (Q8VNN2 whole entry): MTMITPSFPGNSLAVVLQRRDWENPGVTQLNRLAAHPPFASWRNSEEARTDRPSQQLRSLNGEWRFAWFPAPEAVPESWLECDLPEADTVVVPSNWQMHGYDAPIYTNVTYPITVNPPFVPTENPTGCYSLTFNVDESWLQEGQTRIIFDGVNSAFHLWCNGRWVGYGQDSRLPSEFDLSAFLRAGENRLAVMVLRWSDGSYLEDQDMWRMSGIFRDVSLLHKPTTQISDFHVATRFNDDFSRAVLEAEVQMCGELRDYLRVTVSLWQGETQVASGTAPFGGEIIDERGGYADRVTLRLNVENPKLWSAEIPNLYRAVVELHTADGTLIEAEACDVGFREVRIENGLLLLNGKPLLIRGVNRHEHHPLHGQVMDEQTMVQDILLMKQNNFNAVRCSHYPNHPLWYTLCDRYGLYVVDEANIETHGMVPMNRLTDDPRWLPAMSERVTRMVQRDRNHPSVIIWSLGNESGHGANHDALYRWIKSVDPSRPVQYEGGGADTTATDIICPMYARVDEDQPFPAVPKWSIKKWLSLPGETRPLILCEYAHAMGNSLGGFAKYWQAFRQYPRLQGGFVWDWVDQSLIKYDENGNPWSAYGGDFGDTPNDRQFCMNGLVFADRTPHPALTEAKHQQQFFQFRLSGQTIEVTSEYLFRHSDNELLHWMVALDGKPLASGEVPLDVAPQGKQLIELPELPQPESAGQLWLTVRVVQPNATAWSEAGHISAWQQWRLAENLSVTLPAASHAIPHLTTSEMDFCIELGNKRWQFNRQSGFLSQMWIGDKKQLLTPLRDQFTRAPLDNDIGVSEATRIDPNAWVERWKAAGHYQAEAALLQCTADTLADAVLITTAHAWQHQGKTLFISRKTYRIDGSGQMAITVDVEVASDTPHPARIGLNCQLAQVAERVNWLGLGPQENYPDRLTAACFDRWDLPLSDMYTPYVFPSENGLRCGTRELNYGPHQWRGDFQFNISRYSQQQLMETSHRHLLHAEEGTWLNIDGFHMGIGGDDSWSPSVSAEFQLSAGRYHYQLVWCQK
T1 sequence (Q64346 whole entry): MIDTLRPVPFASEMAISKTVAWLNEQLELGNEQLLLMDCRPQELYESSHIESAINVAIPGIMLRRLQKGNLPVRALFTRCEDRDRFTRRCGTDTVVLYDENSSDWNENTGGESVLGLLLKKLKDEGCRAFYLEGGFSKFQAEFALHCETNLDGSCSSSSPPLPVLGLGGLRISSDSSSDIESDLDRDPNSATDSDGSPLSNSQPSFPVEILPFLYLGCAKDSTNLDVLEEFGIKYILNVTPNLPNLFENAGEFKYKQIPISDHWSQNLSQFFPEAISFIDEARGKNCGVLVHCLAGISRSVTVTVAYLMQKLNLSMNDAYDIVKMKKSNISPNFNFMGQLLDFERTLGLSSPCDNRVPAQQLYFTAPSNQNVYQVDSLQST
Chain of Mu-type opioid receptor (P35372 whole entry): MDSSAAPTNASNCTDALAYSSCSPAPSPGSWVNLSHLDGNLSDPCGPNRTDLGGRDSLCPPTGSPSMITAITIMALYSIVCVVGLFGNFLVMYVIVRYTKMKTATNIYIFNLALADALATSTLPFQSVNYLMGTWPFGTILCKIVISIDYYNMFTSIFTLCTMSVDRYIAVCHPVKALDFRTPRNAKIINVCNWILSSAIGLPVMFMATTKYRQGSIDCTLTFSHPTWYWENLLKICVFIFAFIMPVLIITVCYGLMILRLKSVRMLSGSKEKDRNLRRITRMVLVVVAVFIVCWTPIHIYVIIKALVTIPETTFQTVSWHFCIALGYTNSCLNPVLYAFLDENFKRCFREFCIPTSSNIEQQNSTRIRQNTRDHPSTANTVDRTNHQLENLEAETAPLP
Chain of Glyceraldehyde-3-phosphate dehydrogenase (P04406 whole entry): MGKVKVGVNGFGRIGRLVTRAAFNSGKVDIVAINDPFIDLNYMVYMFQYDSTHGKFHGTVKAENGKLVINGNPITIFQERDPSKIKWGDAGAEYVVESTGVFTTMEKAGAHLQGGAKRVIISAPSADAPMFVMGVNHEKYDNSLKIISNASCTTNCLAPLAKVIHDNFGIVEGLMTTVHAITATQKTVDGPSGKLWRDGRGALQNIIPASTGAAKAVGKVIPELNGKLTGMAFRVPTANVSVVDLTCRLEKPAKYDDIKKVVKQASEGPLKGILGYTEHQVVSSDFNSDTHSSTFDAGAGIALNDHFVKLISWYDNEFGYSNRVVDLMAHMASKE
Chain of CAAX prenyl protease 1 (P47154 whole entry): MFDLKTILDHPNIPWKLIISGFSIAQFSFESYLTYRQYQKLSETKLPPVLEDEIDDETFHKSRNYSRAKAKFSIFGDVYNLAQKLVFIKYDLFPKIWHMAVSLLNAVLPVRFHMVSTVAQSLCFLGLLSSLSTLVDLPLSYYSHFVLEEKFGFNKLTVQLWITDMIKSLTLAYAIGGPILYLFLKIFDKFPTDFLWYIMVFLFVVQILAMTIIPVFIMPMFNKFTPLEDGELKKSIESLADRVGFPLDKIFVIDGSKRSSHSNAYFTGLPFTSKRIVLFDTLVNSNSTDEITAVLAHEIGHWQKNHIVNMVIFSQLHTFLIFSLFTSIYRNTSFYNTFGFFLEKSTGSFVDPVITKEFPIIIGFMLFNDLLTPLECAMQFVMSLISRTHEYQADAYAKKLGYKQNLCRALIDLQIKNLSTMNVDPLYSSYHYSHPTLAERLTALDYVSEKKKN
Chain of ATP-dependent molecular chaperone HSP82 (C4YTQ8 whole entry): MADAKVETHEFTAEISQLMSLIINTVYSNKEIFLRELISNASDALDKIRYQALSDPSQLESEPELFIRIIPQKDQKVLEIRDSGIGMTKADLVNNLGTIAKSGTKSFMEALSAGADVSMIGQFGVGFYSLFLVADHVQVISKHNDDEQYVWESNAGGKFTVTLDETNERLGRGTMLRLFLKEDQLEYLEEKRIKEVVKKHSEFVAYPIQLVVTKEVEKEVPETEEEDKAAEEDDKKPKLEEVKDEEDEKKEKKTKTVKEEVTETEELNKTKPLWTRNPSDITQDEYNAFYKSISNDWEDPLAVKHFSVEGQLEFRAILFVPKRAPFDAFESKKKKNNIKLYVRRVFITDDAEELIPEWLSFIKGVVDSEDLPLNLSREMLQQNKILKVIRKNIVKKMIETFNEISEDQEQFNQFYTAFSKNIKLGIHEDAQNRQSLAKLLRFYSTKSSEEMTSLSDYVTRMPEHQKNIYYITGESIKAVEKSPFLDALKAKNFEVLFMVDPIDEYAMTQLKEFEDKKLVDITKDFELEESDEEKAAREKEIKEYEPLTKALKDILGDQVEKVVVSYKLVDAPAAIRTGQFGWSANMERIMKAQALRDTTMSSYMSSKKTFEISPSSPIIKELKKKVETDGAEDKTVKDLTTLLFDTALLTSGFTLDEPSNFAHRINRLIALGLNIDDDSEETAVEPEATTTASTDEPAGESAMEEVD
Chain of Tyrosine-protein phosphatase non-receptor type 7 (P35236 whole entry): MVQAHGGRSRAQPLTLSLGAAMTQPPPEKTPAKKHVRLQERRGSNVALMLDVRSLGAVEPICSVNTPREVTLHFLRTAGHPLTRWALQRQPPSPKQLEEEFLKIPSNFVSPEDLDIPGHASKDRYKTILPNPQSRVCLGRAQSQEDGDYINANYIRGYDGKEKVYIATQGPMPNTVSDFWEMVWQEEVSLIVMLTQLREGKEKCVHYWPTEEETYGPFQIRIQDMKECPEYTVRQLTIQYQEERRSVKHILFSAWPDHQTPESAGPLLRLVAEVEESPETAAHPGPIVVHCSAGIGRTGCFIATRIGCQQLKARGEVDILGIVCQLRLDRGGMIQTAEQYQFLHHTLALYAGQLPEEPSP
Chain of Cytochrome P450 2C19 (P33261 whole entry): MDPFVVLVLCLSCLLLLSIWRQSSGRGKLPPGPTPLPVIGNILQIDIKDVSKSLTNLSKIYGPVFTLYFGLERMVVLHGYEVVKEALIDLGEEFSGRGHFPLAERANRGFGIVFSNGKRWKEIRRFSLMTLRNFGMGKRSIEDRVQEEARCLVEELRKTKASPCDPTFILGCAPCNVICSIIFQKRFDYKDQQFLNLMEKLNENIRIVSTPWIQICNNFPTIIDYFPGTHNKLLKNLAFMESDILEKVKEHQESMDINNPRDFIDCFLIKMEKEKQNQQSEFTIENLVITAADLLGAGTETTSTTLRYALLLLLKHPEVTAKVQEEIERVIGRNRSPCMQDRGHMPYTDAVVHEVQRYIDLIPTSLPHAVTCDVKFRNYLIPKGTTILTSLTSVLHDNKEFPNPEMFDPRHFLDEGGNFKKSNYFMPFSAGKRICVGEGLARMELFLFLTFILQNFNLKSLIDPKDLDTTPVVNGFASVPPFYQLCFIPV

## Cc1cc(N2CCOCC2)n2cc(-c3ccccc3)nc2n1
[1]
  AC50: 38.6 µM (active)

## Cc1ccccc1Cn1c(=O)n(-c2ccccc2)c(=O)n([C@@H](C)C(N)=O)c1=O
[2]
  IC50: > 100 µM (not active)
[3]
  IC50: > 100 µM (not active)
[4]
  IC50: > 100 µM (inactive)
[5]
  IC50: > 100 µM (inactive)

## COc1cc(OC)cc(-c2c(-c3cccs3)c3cc(-c4ccc(N(C)C)nc4)ccc3n2C)c1
[6]
  AC50: 28.5 µM (active)
[7]
  AC50: 109 µM (active)

## CCCOc1ccc(C(=O)NNC(=S)NC(=O)CC)cc1
[8]
  EC50: 35.1 µM (active)
[9]
  IC50: > 32 µM (inactive)
[10]
  EC50: > 32 µM (inactive)
[11]
  EC50: 612 nM (active)
[12]
  EC50: > 32 µM (inactive)
[13]
  EC50: > 40 µM (inactive)
[14]
  EC50: 384 nM (active)
[15]
  IC50: 7.14 µM (active)
[16]
  EC50: > 180 µM (inactive)
[17]
  IC50: 7.95 µM (active)
[18]
  EC50: > 31.5 µM (inactive)
[19]
  IC50: > 32 µM
[20]
  EC50: 2.48 µM (active)
[21]
  IC50: > 20 µM (inactive)
[22]
  IC50: 9.02 µM (active)
[23]
  IC50: 7.86 µM (active)
[24]
  AC50: 20 µM (inconclusive)
[25]
  IC50: > 25 µM (active)
[26]
  CC50: 21.3 µM (active)
[27]
  EC50: 20.1 µM (active)
[28]
  AC50: 24.4 µM (active)
[29]
  AC50: > 70 µM (inactive)
[30]
  AC50: 4.18 µM (active)
